In the supplement of paper PMC10307832:

Experiments:
Experiment in all cases: relative viability (nuclei count vs DMSO), 5 days (fraction); higher = more cells survive
LXF-289 = test system: LXF-289
Outline: (§1)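 Relative viability is defined as nuclei in treated wells over nuclei in vehicle wells. Duplicate plates were run and medians reported. Lung cancer cell lines in 1536-well plates were dosed by pin tool one day after seeding, with one drug or with a fixed anchor-drug dose plus five library-drug doses (not always all listed) in √10 steps, and nuclei were counted after 5 days.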

EKVX = test system: EKVX
Outline: as §1

NCI-H1650 = test system: NCI-H1650
Outline: as §1

NCI-H1915 = test system: NCI-H1915
Outline: as §1

SW 1573 = test system: SW 1573
Outline: as §1

NCI-H661 = test system: NCI-H661
Outline: as §1

BEN = test system: BEN
Outline: as §1

NCI-H460 = test system: NCI-H460
Outline: as §1

NCI-H2228 = test system: NCI-H2228
Outline: as §1

NCI-H1651 = test system: NCI-H1651
Outline: as §1

COR-L23 = test system: COR-L23
Outline: as §1

EPLC-272H = test system: EPLC-272H
Outline: as §1

NCI-H520 = test system: NCI-H520
Outline: as §1

NCI-H2347 = test system: NCI-H2347
Outline: as §1

NCI-H358 = test system: NCI-H358
Outline: as §1

A-427 = test system: A-427
Outline: as §1

EMC-BAC-2 = test system: EMC-BAC-2
Outline: as §1

NCI-H1793 = test system: NCI-H1793
Outline: as §1

HCC-44 = test system: HCC-44
Outline: as §1

LK-2 = test system: LK-2
Outline: as §1

NCI-H2087 = test system: NCI-H2087
Outline: as §1

SMILES: COCC1(CO)C(=O)C2CCN1CC2 (stereo not given) [PRIMA-1MET] + CS(=O)(=O)CCNCc1ccc(-c2ccc3ncnc(Nc4ccc(OCc5cccc(F)c5)c(Cl)c4)c3c2)o1 [Lapatinib] (partner 2 µM)
- relative viability (LXF-289; first compound 0.2 µM): 0.878
- relative viability (LXF-289; first compound 0.6325 µM): 0.879
- relative viability (LXF-289; first compound 2 µM): 0.979
- relative viability (LXF-289; first compound 6.325 µM): 0.923
- relative viability (LXF-289; first compound 20 µM): 0.836
- relative viability (EKVX; first compound 0.2 µM): 0.244
- relative viability (EKVX; first compound 0.6325 µM): 0.202
- relative viability (EKVX; first compound 2 µM): 0.174
- relative viability (EKVX; first compound 6.325 µM): 0.213
- relative viability (EKVX; first compound 20 µM): 0.201
- relative viability (NCI-H1650; first compound 0.2 µM): 0.84
- relative viability (NCI-H1650; first compound 0.6325 µM): 0.378
- relative viability (NCI-H1650; first compound 2 µM): 0.426
- relative viability (NCI-H1650; first compound 6.325 µM): 0.647
- relative viability (NCI-H1650; first compound 20 µM): 0.81
- relative viability (NCI-H1915; first compound 0.2 µM): 1.07
- relative viability (NCI-H1915; first compound 0.6325 µM): 0.845
- relative viability (NCI-H1915; first compound 2 µM): 0.864
- relative viability (NCI-H1915; first compound 6.325 µM): 0.925
- relative viability (NCI-H1915; first compound 20 µM): 0.958
- relative viability (SW 1573; first compound 0.2 µM): 1.26
- relative viability (SW 1573; first compound 0.6325 µM): 1.04
- relative viability (SW 1573; first compound 2 µM): 0.999
- relative viability (SW 1573; first compound 6.325 µM): 0.691
- relative viability (SW 1573; first compound 20 µM): 0.0423
- relative viability (NCI-H661; first compound 0.2 µM): 0.531
- relative viability (NCI-H661; first compound 0.6325 µM): 0.467
- relative viability (NCI-H661; first compound 6.325 µM): 0.493
- relative viability (NCI-H661; first compound 20 µM): 0.266
- relative viability (BEN; first compound 0.2 µM): 0.786
- relative viability (BEN; first compound 0.6325 µM): 0.774
- relative viability (BEN; first compound 6.325 µM): 0.82
- relative viability (BEN; first compound 20 µM): 0.687
- relative viability (NCI-H460; first compound 0.2 µM): 0.993
- relative viability (NCI-H460; first compound 0.6325 µM): 0.826
- relative viability (NCI-H460; first compound 2 µM): 0.893
- relative viability (NCI-H460; first compound 6.325 µM): 0.607
- relative viability (NCI-H460; first compound 20 µM): 0.0047
- relative viability (NCI-H2228; first compound 0.2 µM): 1.12
- relative viability (NCI-H2228; first compound 0.6325 µM): 0.834
- relative viability (NCI-H2228; first compound 2 µM): 1.59
- relative viability (NCI-H2228; first compound 6.325 µM): 1.23
- relative viability (NCI-H2228; first compound 20 µM): 0.0337
- relative viability (NCI-H1651; first compound 0.2 µM): 0.917
- relative viability (NCI-H1651; first compound 0.6325 µM): 0.731
- relative viability (NCI-H1651; first compound 2 µM): 0.659
- relative viability (NCI-H1651; first compound 6.325 µM): 0.839
- relative viability (NCI-H1651; first compound 20 µM): 0.736
- relative viability (COR-L23; first compound 0.2 µM): 1.11
- relative viability (COR-L23; first compound 0.6325 µM): 0.922
- relative viability (COR-L23; first compound 2 µM): 0.941
- relative viability (COR-L23; first compound 6.325 µM): 1.17
- relative viability (COR-L23; first compound 20 µM): 0.0199
- relative viability (EPLC-272H; first compound 0.2 µM): 0.871
- relative viability (EPLC-272H; first compound 0.6325 µM): 0.767
- relative viability (EPLC-272H; first compound 2 µM): 0.905
- relative viability (EPLC-272H; first compound 6.325 µM): 0.971
- relative viability (EPLC-272H; first compound 20 µM): 0.333
- relative viability (NCI-H520; first compound 0.2 µM): 0.792
- relative viability (NCI-H520; first compound 0.6325 µM): 0.987
- relative viability (NCI-H520; first compound 6.325 µM): 0.828
- relative viability (NCI-H520; first compound 20 µM): 0.0834
- relative viability (NCI-H2347; first compound 0.2 µM): 0.939
- relative viability (NCI-H2347; first compound 0.6325 µM): 0.856
- relative viability (NCI-H2347; first compound 2 µM): 0.57
- relative viability (NCI-H2347; first compound 6.325 µM): 0.918
- relative viability (NCI-H2347; first compound 20 µM): 1.06
- relative viability (NCI-H358; first compound 0.2 µM): 0.486
- relative viability (NCI-H358; first compound 0.6325 µM): 0.431
- relative viability (NCI-H358; first compound 6.325 µM): 0.471
- relative viability (NCI-H358; first compound 20 µM): 0.0399
- relative viability (A-427; first compound 0.2 µM): 1.08
- relative viability (A-427; first compound 0.6325 µM): 0.849
- relative viability (A-427; first compound 2 µM): 0.895
- relative viability (A-427; first compound 6.325 µM): 1.02
- relative viability (A-427; first compound 20 µM): 0.982
- relative viability (EMC-BAC-2; first compound 0.2 µM): 0.918
- relative viability (EMC-BAC-2; first compound 0.6325 µM): 0.895
- relative viability (EMC-BAC-2; first compound 2 µM): 0.766
- relative viability (EMC-BAC-2; first compound 6.325 µM): 0.89
- relative viability (EMC-BAC-2; first compound 20 µM): 0.897
- relative viability (NCI-H1793; first compound 0.2 µM): 0.707
- relative viability (NCI-H1793; first compound 0.6325 µM): 0.68
- relative viability (NCI-H1793; first compound 6.325 µM): 0.592
- relative viability (NCI-H1793; first compound 20 µM): 0.646
- relative viability (HCC-44; first compound 0.2 µM): 1.02
- relative viability (HCC-44; first compound 0.6325 µM): 0.775
- relative viability (HCC-44; first compound 2 µM): 0.99
- relative viability (HCC-44; first compound 6.325 µM): 1.01
- relative viability (HCC-44; first compound 20 µM): 0.994
- relative viability (LK-2; first compound 0.2 µM): 0.885
- relative viability (LK-2; first compound 0.6325 µM): 0.755
- relative viability (LK-2; first compound 2 µM): 0.6
- relative viability (LK-2; first compound 6.325 µM): 0.662
- relative viability (LK-2; first compound 20 µM): 0.18
- relative viability (NCI-H2087; first compound 0.2 µM): 0.848
- relative viability (NCI-H2087; first compound 0.6325 µM): 0.813
- relative viability (NCI-H2087; first compound 2 µM): 0.848
- relative viability (NCI-H2087; first compound 6.325 µM): 1.22
- relative viability (NCI-H2087; first compound 20 µM): 0.919
